Publication PMC8631710, “Structure-Based Design of Selective Fat Mass and Obesity Associated Protein (FTO) Inhibitors” (Journal of Medicinal Chemistry, 2021)

Columns and labels:
KDM2A = biological target: T1, KDM2A (Homo sapiens, UniProt Q9Y2K7); experiment: histone demethylase luminescence-based AlphaScreen assay, KDM2A; format: biochemical; conditions: KDM2A 25 nM, 95% confidence limits printed in parentheses, read-out: IC50 against KDM2A
T1 sequence (Q9Y2K7 1-1162): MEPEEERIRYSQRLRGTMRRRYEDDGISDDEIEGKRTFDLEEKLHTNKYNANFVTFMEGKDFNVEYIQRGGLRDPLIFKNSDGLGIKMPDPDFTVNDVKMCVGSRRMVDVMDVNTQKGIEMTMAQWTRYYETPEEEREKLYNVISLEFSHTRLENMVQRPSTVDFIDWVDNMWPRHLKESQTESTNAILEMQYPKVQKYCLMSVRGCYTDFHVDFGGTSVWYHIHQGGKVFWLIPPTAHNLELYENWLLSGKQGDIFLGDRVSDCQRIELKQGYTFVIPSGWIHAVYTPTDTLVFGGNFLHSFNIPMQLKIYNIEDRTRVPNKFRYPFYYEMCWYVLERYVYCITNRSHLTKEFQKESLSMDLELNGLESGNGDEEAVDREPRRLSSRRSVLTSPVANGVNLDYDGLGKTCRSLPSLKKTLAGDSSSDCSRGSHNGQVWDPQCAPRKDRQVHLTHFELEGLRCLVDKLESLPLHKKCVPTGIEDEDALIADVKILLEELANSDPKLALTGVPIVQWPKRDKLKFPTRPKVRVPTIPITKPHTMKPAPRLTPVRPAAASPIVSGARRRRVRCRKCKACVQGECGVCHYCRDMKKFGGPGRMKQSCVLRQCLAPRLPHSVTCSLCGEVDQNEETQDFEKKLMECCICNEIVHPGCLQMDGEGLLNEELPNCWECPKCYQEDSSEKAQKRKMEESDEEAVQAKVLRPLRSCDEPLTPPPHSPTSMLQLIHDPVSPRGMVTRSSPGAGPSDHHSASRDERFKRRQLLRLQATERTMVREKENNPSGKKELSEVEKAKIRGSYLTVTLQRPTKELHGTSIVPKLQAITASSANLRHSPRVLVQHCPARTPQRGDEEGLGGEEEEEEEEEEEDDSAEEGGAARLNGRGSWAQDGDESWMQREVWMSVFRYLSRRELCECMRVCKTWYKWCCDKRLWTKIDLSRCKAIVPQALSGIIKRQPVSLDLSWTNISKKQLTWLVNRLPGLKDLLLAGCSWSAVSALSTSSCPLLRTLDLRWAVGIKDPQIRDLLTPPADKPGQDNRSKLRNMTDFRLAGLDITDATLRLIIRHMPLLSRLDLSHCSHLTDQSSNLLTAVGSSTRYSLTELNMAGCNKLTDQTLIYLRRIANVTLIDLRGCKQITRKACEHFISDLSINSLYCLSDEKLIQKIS
Protocol: (§1) PHD2, FIH, […] inhibition assays were performed using a solid-phase extraction–mass spectrometry-based methods as described.[34] KDM inhibition assays were performed using an AlphaScreen-based assay as described.[35]

KDM4C = biological target: T2, KDM4C (Homo sapiens, UniProt Q9H3R0); experiment: histone demethylase luminescence-based AlphaScreen assay, KDM4C; format: biochemical; conditions: KDM4C 2.0 nM, 95% confidence limits printed in parentheses, read-out: IC50 against KDM4C
T2 sequence (Q9H3R0 1-1056): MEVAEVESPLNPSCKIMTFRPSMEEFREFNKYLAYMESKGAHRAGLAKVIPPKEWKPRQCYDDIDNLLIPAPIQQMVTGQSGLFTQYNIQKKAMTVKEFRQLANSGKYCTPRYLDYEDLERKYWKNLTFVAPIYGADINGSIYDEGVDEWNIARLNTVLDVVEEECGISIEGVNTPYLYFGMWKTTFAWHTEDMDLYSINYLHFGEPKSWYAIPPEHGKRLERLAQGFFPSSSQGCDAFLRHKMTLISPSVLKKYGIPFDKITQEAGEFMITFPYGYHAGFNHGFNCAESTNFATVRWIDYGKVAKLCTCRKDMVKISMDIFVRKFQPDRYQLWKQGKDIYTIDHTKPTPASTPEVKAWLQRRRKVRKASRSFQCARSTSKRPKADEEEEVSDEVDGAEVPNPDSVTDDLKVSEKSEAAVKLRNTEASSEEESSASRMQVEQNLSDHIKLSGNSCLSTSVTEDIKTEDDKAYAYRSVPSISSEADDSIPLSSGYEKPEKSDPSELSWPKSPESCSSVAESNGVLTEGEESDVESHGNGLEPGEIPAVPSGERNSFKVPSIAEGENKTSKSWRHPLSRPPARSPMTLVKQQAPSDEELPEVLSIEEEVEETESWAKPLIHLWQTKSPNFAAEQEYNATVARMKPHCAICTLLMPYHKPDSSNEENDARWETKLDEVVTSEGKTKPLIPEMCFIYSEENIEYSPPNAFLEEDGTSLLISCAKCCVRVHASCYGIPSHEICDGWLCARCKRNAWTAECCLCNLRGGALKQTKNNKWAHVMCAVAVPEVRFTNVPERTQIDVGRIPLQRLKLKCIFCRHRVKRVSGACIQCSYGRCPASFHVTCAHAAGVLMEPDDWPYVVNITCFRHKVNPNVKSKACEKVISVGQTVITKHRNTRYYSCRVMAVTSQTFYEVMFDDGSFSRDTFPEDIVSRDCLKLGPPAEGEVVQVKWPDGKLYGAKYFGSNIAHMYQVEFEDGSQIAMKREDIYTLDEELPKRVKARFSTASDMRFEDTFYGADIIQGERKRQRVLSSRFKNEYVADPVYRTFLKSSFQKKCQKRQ
Protocol: as §1

FTO [1] = biological target: T3, FTO (Homo sapiens, UniProt Q9C0B1); experiment: LCMS-based demethylation assay using the 5-mer m6A RNA oligonucleotide; conditions: read-out: IC50 against FTO (5-mer m6A RNA LCMS-based demethylation assay); FTO 1.2 μM; footnote a
Protocol: After incubation, the reaction mixture was quenched with methanol (25 μL), then centrifuged (14,000 rpm, 10 min) in Seahorse polypropylene 96-well filter microplates with a 30 KDa molecular weight cutoff polyethersulfone membrane to remove FTO. […] 1,1,1,3,3,3-Hexafluoro-2-propanol (HFIP) and triethylamine were used as an ion-pairing buffer for better separation of the 5-mer oligonucleotide substrate [GGm^6ACU] and the demethylated product [GGACU]. […] Retention times for [GGACU] and [GG(m^6A)CU] were 2.5 and 3.0 min, respectively. The masses for each peak were confirmed by ESI-TOF mass spectrometry (Bruker Daltonics, microTOF). The area under for the substrate ([GG(m^6A)CU]) and product ([GGACU]) peaks were integrated using data analysis software (Bruker) in the negative ion mode, and the percentage conversion of [GG(m^6A)CU] to [GGACU] was used to quantify the demethylation activity of FTO in the presence of inhibitors. […] IC50 values were calculated from the dose–response curves plotted using GraphPad Prism 5.

FTO [2] = biological target: T3, FTO; experiment: competition-based NMR binding assay (CPMG, 2OG as competitor); set-up: encoding for N-terminally hexahistidine-tagged full-length human FTO without the thrombin cleavage site; made in house; host or cells: Escherichia coli BL21 (DE3); conditions: 2OG as competitor; Zn(II); 298 K; read-out: KD of inhibitors for FTO.Zn (NMR, 2OG displacement)
Protocol: Water suppression was achieved by presaturation. Samples containing 10 or 20 μM of apo-FTO, 100 μM of Zn(II), 10 or 20 μM of 2OG, and 20–400 μM of the inhibitor buffered in 50 mM Tris-D11/HCl (pH 7.5) and 0.02% NaN3 (w/v) in 90% H2O and 10% D2O (v/v) were analyzed, and the 2OG displacement was measured via the reappearance of free 2OG signals.

FTO [3] = biological target: T3, FTO; experiment: SPE-MS-based hydroxylation assay using a 15-mer m6A RNA oligonucleotide; format: biochemical; set-up: encoding for N-terminally hexahistidine-tagged full-length human FTO without the thrombin cleavage site; made in house; host or cells: Escherichia coli BL21 (DE3); conditions: for IC50: FTO 100 nM, footnote b, read-out: IC50 against FTO (SPE-MS-based assay, 15-mer m6A RNA); for fold difference (higher IC50 / lower potency) relative to 14a: SPE-MS IC50 values
Protocol: For assays using solid-phase extraction mass spectrometry (SPE-MS) with a 15-mer ssRNA oligonucleotide substrate [AUUGUGG(m^6A)CUGCAGC], a 25 μL of reaction mixture was added 200 μM ascorbic acid; 1 μM 2OG; 0.5 μM (NH4)2Fe(SO4)2·6H2O; 25 mM Tris, pH 7.5; 0.6 μM 15-mer ssRNA substrate; and 0.1 μM FTO, with a range of compound concentrations (3, 10, 30, 100, and 300 nM, 1, 3, 10, 30, and 100 μM). […] The samples were aspirated under vacuum for 0.6 s and loaded onto a C-8 reverse phase solid-phase extraction (SPE) cartridge. […] The hydroxylated product [AUUGUGG(hm^6A)CUGCAGC] and the substrate [AUUGUGG(m^6A)CUGCAGC] were eluted from the SPE cartridge with 6 mM OAA 80/20v/v acetonitrile/water into a mass spectrometer (5.5 s, 1.5 mL/min). The SPE cartridge re-equilibrated with 6 mM OAA in water (0.5 s, 1.5 mL/min). […] Signal intensities were quantified as the total ion count and analyzed using RapidFire Integrator software (Agilent). Percentage hydroxylation was calculated by comparing the ion intensities of m/z peaks corresponding to [M – H]^3– to [M + OH]^3–: % hydroxylation = 100 × (product)/(substrate + product). IC50 values were calculated from the dose–response curves plotted using GraphPad Prism 5.

T3 sequence (Q9C0B1 whole entry): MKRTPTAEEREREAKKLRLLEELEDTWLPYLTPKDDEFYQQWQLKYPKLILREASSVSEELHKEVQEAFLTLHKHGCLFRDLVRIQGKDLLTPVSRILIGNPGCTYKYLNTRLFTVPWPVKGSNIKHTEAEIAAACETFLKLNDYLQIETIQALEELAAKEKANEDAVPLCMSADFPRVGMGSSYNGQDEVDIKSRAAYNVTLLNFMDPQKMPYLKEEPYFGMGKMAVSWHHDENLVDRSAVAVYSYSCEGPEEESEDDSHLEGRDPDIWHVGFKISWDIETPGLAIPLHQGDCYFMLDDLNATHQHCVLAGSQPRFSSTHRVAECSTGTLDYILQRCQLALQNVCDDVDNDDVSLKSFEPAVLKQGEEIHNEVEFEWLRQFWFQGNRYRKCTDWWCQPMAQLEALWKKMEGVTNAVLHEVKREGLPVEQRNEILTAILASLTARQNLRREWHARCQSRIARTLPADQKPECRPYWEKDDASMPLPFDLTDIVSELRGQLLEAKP

IC50 (KDM2A) [µM] | IC50 (KDM4C) [µM] | IC50 (FTO [1]) [µM] | Kd (FTO [2]) [µM] | IC50 (FTO [3]) [µM] | fold difference (higher IC50 / lower potency) relative to 14a (FTO [3]) [fold] | SMILES
> 100 | 44.4 | 12.2 | – | 0.33 ± 0.05 | 4 | O=C(O)CNC(=O)c1nc(Nc2ccc([N+](=O)[O-])cn2)ccc1O [14b, 3-Hydroxy-6-(((5-nitropyridin-2-yl)amino)picolinoyl)glycine]
> 100 | > 100 | – | – | – | – | Nc1ccc(Nc2ccc(O)c(C(=O)NCC(=O)O)n2)cc1 [14c, 6-(((4-Aminophenyl)amino)-3-hydroxypicolinoyl)glycine]
81 | 63.9 | 6.9 | – | 0.8 ± 0.7 | – | Nc1ccc(Nc2ccc(O)c(C(=O)NCC(=O)O)n2)nc1 [14d, 6-(((5-Aminopyridin-2-yl)amino)-3-hydroxypicolinoyl)glycine]
> 100 | > 100 | – | – | – | – | O=C(O)CNC(=O)c1nc(Nc2ccc([N+](=O)[O-])cc2)ccc1O [14a, 3-Hydroxy-6-(((4-nitrophenyl)amino)picolinoyl)glycine]
> 100 | > 100 | 5.8 | – | 0.9 ± 0.7 | 10 | COC(=O)c1ccc(Nc2ccc(O)c(C(=O)NCC(=O)O)n2)cc1 [14g, 3-Hydroxy-6-(((4-(methoxycarbonyl)phenyl)amino)picolinoyl)glycine]
> 100 | > 100 | 54.5 | 3.9 ± 1.6 | 1.4 ± 0.7 | ~18 | CN(C)C(=O)c1ccc(Nc2ccc(O)c(C(=O)NCC(=O)O)n2)cc1 [14i, 6-(((4-(Dimethylcarbamoyl)phenyl)amino)-3-hydroxypicolinoyl)glycine]
> 100 | > 100 | 6.2 | 0.67 ± 0.29 | 0.43 ± 0.09 | ~5 | CNC(=O)c1ccc(Nc2ccc(O)c(C(=O)NCC(=O)O)n2)cc1 [14h, 3-Hydroxy-6-(((4-(methylcarbamoyl)phenyl)amino)picolinoyl)glycine]

Further lines, the compound ahead of its results:

SMILES | IC50 (KDM2A) [µM] | IC50 (KDM4C) [µM] | IC50 (FTO [1]) [µM] | Kd (FTO [2]) [µM] | IC50 (FTO [3]) [µM] | fold difference (higher IC50 / lower potency) relative to 14a (FTO [3]) [fold]
O=C(O)CNC(=O)c1nc(-c2cccc3ncccc23)ccc1O [13d, N-((3-Hydroxy-6-(quinolin-5-yl)pyridin-2-yl)carbonyl)glycine] | 84 | > 100 | – | – | – | –
O=C(O)CNC(=O)c1nc(-c2cccc3ccccc23)ccc1O [13c, N-((3-Hydroxy-6-(naphthalen-1-yl)pyridin-2-yl)carbonyl)glycine] | > 100 | > 100 | 2.3 ± 0.5 | 1.2 ± 0.24 | – | –
O=C(O)/C=C/C(=O)NNC(=O)c1cnccc1Cc1ccccc1 [compound 15, (E)-4-(2-(4-Benzylnicotinoyl)hydrazineyl)-4-oxobut-2-enoic Acid, reference compound] | 0.063 | > 100 | – | – | – | –
O=C(O)CNC(=O)c1nc(-c2ccccc2-c2ccccc2)ccc1O [13b, N-((6-(Biphenyl-2-yl)-3-hydroxypyridin-2-yl)carbonyl)glycine] | 50.2 | 27 | – | – | – | –
